Calls of active or inactive are those of the source.
How the values were obtained:
Assay type in all cases: functional, cell-based
BSC-1 [1] = experiment: Antimitotic activity against african green monkey BSC1 cells assessed as induction of monopolar spindles by immunofluorescence microscopy; conditions: Chlorocebus aethiops
BSC-1 [2] = experiment: Antimitotic activity against african green monkey BSC1 cells assessed as induction of monopolar spindles and two separated astral microtubule array at 20 uM by immunofluorescence microscopy; conditions: Chlorocebus aethiops
BSC-1 [3] = experiment: Antimitotic activity against african green monkey BSC1 cells assessed as induction of normal spindles at 2.5 uM by immunofluorescence microscopy; conditions: Chlorocebus aethiops
BSC-1 [4] = experiment: Induction of monopolar mitotic spindles in african green monkey BSC1 cells assessed as percentage of monopolar cells with two centrosomes at 20 uM after 4 hrs; conditions: Chlorocebus aethiops
BSC-1 [5] = experiment: Induction of monopolar mitotic spindles in african green monkey BSC1 cells assessed as kinesin-5 (Eg5) inhibition at 100 uM after 4 hrs; conditions: Chlorocebus aethiops
BSC-1 [6] = experiment: Induction of deffects in mitotic spindle in african green monkey BSC1 cells at 20 uM after 4 hrs by immunocytochemistry; conditions: Chlorocebus aethiops
BSC-1 [7] = experiment: Antimitotic activity against african green monkey BSC1 cells assessed as induction of bipolar spindles with decrease in pole to pole distance at 20 uM by immunofluorescence microscopy; conditions: Chlorocebus aethiops
U2OS [8] = experiment: Disruption of interphase microtubule organization in human U2OS cells at 250 uM after 4 hrs by immunofluorescence
U2OS [9] = experiment: Reduction in gamma-tubulin level in centrosomes in human U2OS cells at 250 uM after 4 hrs by immunofluorescence
BSC-1 [10] = experiment: Induction of reduced mitotic index in african green monkey BSC1 cells at 20 uM after 4 hrs by immunocytochemistry; conditions: Chlorocebus aethiops
BSC-1 [11] = experiment: Induction of severe microtubule disruption in african green monkey BSC1 cells at 20 uM after 4 hrs by immunocytochemistry; conditions: Chlorocebus aethiops
BSC-1 [12] = experiment: Antimitotic activity against african green monkey BSC1 cells assessed as induction of monopolar spindles and spindle pole deffects at 20 uM by immunofluorescence microscopy; conditions: Chlorocebus aethiops
BSC-1 [13] = experiment: Antimitotic activity against african green monkey BSC1 cells assessed as induction of chromosome alignment deffects at 20 uM by immunofluorescence microscopy; conditions: Chlorocebus aethiops
BSC-1 [14] = experiment: Antimitotic activity against african green monkey BSC1 cells assessed as induction of sphere like organization at 2.5 uM by immunofluorescence microscopy; conditions: Chlorocebus aethiops
BSC-1 [15] = experiment: Antimitotic activity against african green monkey BSC1 cells assessed as induction of monopolar spindles at 20 uM by immunofluorescence microscopy; conditions: Chlorocebus aethiops

With `c1cc(Nc2ccc3c(c2)CCC3)nc(Nc2ccc3ncsc3c2)n1` the EC50 (BSC-1 [1]) was 30 µM, the Activity (BSC-1 [2]) was “Active” and the Activity (BSC-1 [3]) was “Active”. The Activity (BSC-1 [4]) was “Active”, the Activity (BSC-1 [5]) was “Active” and the Activity (BSC-1 [6]) was “Active”.
`c1cc(Nc2ccc3c(c2)OCO3)nc(Nc2ccc3c(c2)CCC3)n1` was tested, and the Activity (BSC-1 [7]) was “Active” and the Activity (BSC-1 [6]) was “Active”.
`COc1cc(OC)c(/C=C/S(=O)(=O)Cc2ccc(OC)c(NCC(=O)O)c2)c(OC)c1` was tested, and the Activity (U2OS [8]) was “inactive” and the Activity (U2OS [9]) was “inactive”.
In the case of `CCCCNc1ncc([N+](=O)[O-])c(NC2CCCC2)n1`, the Activity (BSC-1 [10]) is reported as “Active”, the Activity (BSC-1 [6]) is reported as “Active” and the Activity (BSC-1 [11]) is reported as “Active”.
With `CCCCNc1ncc([N+](=O)[O-])c(Nc2ccccc2C(=O)c2ccccc2)n1` the Activity (BSC-1 [10]) was “Active”, the Activity (BSC-1 [6]) was “Active” and the Activity (BSC-1 [11]) was “Active”.
For `CC(=O)Nc1ccc(Nc2ncc([N+](=O)[O-])c(Nc3ccc4ncsc4c3)n2)cc1`, the Activity (BSC-1 [10]) was “Active”, the Activity (BSC-1 [6]) was “Active” and the Activity (BSC-1 [11]) was “Active”.
In the case of `CC(C)CC(CO)Nc1ncc([N+](=O)[O-])c(Nc2ccc3ncsc3c2)n1` (centres undefined), the Activity (BSC-1 [10]) is reported as “Active”, the Activity (BSC-1 [6]) is reported as “Active” and the Activity (BSC-1 [11]) is reported as “Active”.
`O=[N+]([O-])c1cnc(Nc2ccc3ccccc3c2)nc1Nc1ccc(Cl)c(Cl)c1` was tested, and the Activity (BSC-1 [10]) was “Active”, the Activity (BSC-1 [6]) was “Active” and the Activity (BSC-1 [11]) was “Active”.
For `CCN(CC)CCCC(C)Nc1ncc([N+](=O)[O-])c(NC2CCCC2)n1` (centres undefined), the Activity (BSC-1 [10]) was “Active”, the Activity (BSC-1 [6]) was “Active” and the Activity (BSC-1 [11]) was “Active”.
For `OCC1CCCN1c1nccc(Nc2ccc3c(c2)OCO3)n1` (centres undefined), the Activity (BSC-1 [10]) was “Active”, the Activity (BSC-1 [6]) was “Active” and the Activity (BSC-1 [11]) was “Active”.
For `O=[N+]([O-])c1cnc(NC2CCCC2)nc1Sc1cccc(Cl)c1`, the Activity (BSC-1 [10]) was “Active”, the Activity (BSC-1 [6]) was “Active” and the Activity (BSC-1 [11]) was “Active”.
`CCCCNc1nc(Nc2ccc(N3CCN(C)CC3)cc2)ncc1[N+](=O)[O-]` was tested, and the Activity (BSC-1 [12]) was “Active” and the Activity (BSC-1 [10]) was “Active”.
For `CN1CCN(c2ccnc(NCc3cccs3)n2)CC1`, the Activity (BSC-1 [10]) was “Active”, the Activity (BSC-1 [6]) was “Active” and the Activity (BSC-1 [11]) was “Active”.
In the case of `CN1CCN(c2ncc([N+](=O)[O-])c(Nc3ccccc3C(=O)c3ccccc3)n2)CC1`, the Activity (BSC-1 [10]) is reported as “Active”, the Activity (BSC-1 [6]) is reported as “Active” and the Activity (BSC-1 [11]) is reported as “Active”.
In the case of `CC(=O)Nc1ccc(Nc2nccc(Nc3ccc4c(c3)CCC4)n2)cc1`, the Activity (BSC-1 [10]) is reported as “Active”, the Activity (BSC-1 [6]) is reported as “Active” and the Activity (BSC-1 [11]) is reported as “Active”.
`CC(=O)Nc1ccc(Nc2ccnc(Nc3ccncc3)n2)cc1` was tested, and the Activity (BSC-1 [10]) was “Active”, the Activity (BSC-1 [6]) was “Active” and the Activity (BSC-1 [11]) was “Active”.
`O=C(c1ccccc1)c1ccccc1Nc1nc(Nc2ccc3c(c2)OCO3)ncc1[N+](=O)[O-]` was tested, and the Activity (BSC-1 [13]) was “Active” and the Activity (BSC-1 [6]) was “Active”.
`CC(C)(C)c1ccc(Nc2ncc([N+](=O)[O-])c(Sc3cccc(Cl)c3)n2)cc1` was tested, and the Activity (BSC-1 [10]) was “Active”, the Activity (BSC-1 [6]) was “Active” and the Activity (BSC-1 [11]) was “Active”.
For `CC(=O)Nc1ccc(Nc2ccnc(NC(CO)Cc3ccccc3)n2)cc1` (centres undefined), the Activity (BSC-1 [10]) was “Active”, the Activity (BSC-1 [6]) was “Active” and the Activity (BSC-1 [11]) was “Active”.
In the case of `O=[N+]([O-])c1cnc(Nc2ccc3[nH]ccc3c2)nc1Nc1ccc(Cl)c(Cl)c1`, the Activity (BSC-1 [10]) is reported as “Active”, the Activity (BSC-1 [6]) is reported as “Active” and the Activity (BSC-1 [11]) is reported as “Active”.
`O=[N+]([O-])c1cnc(NC(CO)Cc2ccccc2)nc1Nc1ccc2ncsc2c1` (centres undefined) was tested, and the Activity (BSC-1 [10]) was “Active”, the Activity (BSC-1 [6]) was “Active” and the Activity (BSC-1 [11]) was “Active”.
`CC(=O)Nc1ccc(Nc2ncc([N+](=O)[O-])c(Nc3ccc(Cl)c(Cl)c3)n2)cc1` was tested, and the Activity (BSC-1 [10]) was “Active”, the Activity (BSC-1 [6]) was “Active” and the Activity (BSC-1 [11]) was “Active”.
For `OCC(Cc1ccccc1)Nc1nccc(Nc2ccc3c(c2)OCO3)n1` (centres undefined), the Activity (BSC-1 [10]) was “Active”, the Activity (BSC-1 [6]) was “Active” and the Activity (BSC-1 [11]) was “Active”.
For `CC(=O)Nc1ccc(Nc2ccnc(NCc3cccs3)n2)cc1`, the Activity (BSC-1 [10]) was “Active”, the Activity (BSC-1 [6]) was “Active” and the Activity (BSC-1 [11]) was “Active”.
In the case of `CC(C)(Nc1ncc([N+](=O)[O-])c(NC2CCCC2)n1)c1ccccc1`, the Activity (BSC-1 [10]) is reported as “Active”, the Activity (BSC-1 [6]) is reported as “Active” and the Activity (BSC-1 [11]) is reported as “Active”.
For `O=C(c1ccccc1)c1ccccc1Nc1nc(Nc2ccc(Cl)c(Cl)c2)ncc1[N+](=O)[O-]`, the Activity (BSC-1 [10]) was “Active”, the Activity (BSC-1 [6]) was “Active” and the Activity (BSC-1 [11]) was “Active”.
In the case of `CN1CCN(c2ccc(Nc3ncc([N+](=O)[O-])c(Nc4ccccc4C(=O)c4ccccc4)n3)cc2)CC1`, the Activity (BSC-1 [14]) is reported as “Active”, the Activity (BSC-1 [6]) is reported as “Active” and the Activity (BSC-1 [15]) is reported as “Active”.
With `CN1CCN(c2ccnc(Cl)n2)CC1` the Activity (BSC-1 [10]) was “Active”, the Activity (BSC-1 [6]) was “Active” and the Activity (BSC-1 [11]) was “Active”.
With `CN1CCN(c2nccc(Nc3ccc4c(c3)OCO4)n2)CC1` the Activity (BSC-1 [10]) was “Active”, the Activity (BSC-1 [6]) was “Active” and the Activity (BSC-1 [11]) was “Active”.
With `c1csc(CNc2nccc(Nc3ccc4c(c3)OCO4)n2)c1` the Activity (BSC-1 [13]) was “Active” and the Activity (BSC-1 [6]) was “Active”.
For `CCCCNc1nc(Nc2ccc(C(C)(C)C)cc2)ncc1[N+](=O)[O-]`, the Activity (BSC-1 [10]) was “Active”, the Activity (BSC-1 [6]) was “Active” and the Activity (BSC-1 [11]) was “Active”.
`Clc1ccc(Nc2nccc(Nc3ccc4c(c3)OCO4)n2)cc1Cl` was tested, and the Activity (BSC-1 [10]) was “Active”, the Activity (BSC-1 [6]) was “Active” and the Activity (BSC-1 [11]) was “Active”.
For `CCCCNc1nc(Nc2ccc3[nH]ccc3c2)ncc1[N+](=O)[O-]`, the Activity (BSC-1 [10]) was “Active”, the Activity (BSC-1 [6]) was “Active” and the Activity (BSC-1 [11]) was “Active”.
With `O=C(c1ccccc1)c1ccccc1Nc1nc(Nc2ccc3c(c2)CCC3)ncc1[N+](=O)[O-]` the Activity (BSC-1 [10]) was “Active”, the Activity (BSC-1 [6]) was “Active” and the Activity (BSC-1 [11]) was “Active”.
With `O=[N+]([O-])c1cnc(Nc2ccc3[nH]ccc3c2)nc1NC1CCCC1` the Activity (BSC-1 [10]) was “Active”, the Activity (BSC-1 [6]) was “Active” and the Activity (BSC-1 [11]) was “Active”.
With `O=[N+]([O-])c1cnc(Nc2ccc(Cl)c(Cl)c2)nc1Nc1ccc2[nH]ccc2c1` the Activity (BSC-1 [10]) was “Active”, the Activity (BSC-1 [6]) was “Active” and the Activity (BSC-1 [11]) was “Active”.
For `c1ccc2cc(Nc3nccc(Nc4ccc5c(c4)OCO5)n3)ccc2c1`, the Activity (BSC-1 [10]) was “Active”, the Activity (BSC-1 [6]) was “Active” and the Activity (BSC-1 [11]) was “Active”.
`CC(C)(Nc1ncc([N+](=O)[O-])c(Nc2ccc3ncsc3c2)n1)c1ccccc1` was tested, and the Activity (BSC-1 [10]) was “Active”, the Activity (BSC-1 [6]) was “Active” and the Activity (BSC-1 [11]) was “Active”.
For `O=[N+]([O-])c1cnc(NC2CCCCCC2)nc1Nc1ccc(Cl)c(Cl)c1`, the Activity (BSC-1 [10]) was “Active”, the Activity (BSC-1 [6]) was “Active” and the Activity (BSC-1 [11]) was “Active”.
`CN1CCN(c2ccc(Nc3ncc([N+](=O)[O-])c(Nc4ccc(Cl)c(Cl)c4)n3)cc2)CC1` was tested, and the Activity (BSC-1 [10]) was “Active”, the Activity (BSC-1 [6]) was “Active” and the Activity (BSC-1 [11]) was “Active”.
In the case of `CCCCNc1ncc([N+](=O)[O-])c(Nc2ccccc2C(N)=O)n1`, the Activity (BSC-1 [10]) is reported as “Active”, the Activity (BSC-1 [6]) is reported as “Active” and the Activity (BSC-1 [11]) is reported as “Active”.
In the case of `O=[N+]([O-])c1cnc(Nc2ccc3c(c2)CCC3)nc1Nc1ccc(Cl)c(Cl)c1`, the Activity (BSC-1 [10]) is reported as “Active”, the Activity (BSC-1 [6]) is reported as “Active” and the Activity (BSC-1 [11]) is reported as “Active”.
